{
  "source": "patent US7855200B2",
  "about": "“Method for treatment of gastric ulcers and ulcers induced by aspirin” (Council of Scientific and Industrial Research, priority 2006, dated 2010)",
  "type_in_all_cases": "in vivo, albino rats",
  "key": {"[1]": {"test_system": "acetyl salicylic acid induced gastric lesions", "assay": "Acetyl salicylic acid (aspirin) induced gastric ulcer", "parameters": "Ulcer index Mean(SE): scale not given here", "details": "rats, aspirin 200 mg/kg", "procedure,_shortened": "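Rats in groups of 6 were dosed orally once a day for five days with test compounds suspended in 1% Tween 80. A 1% Tween 80 control group and a ranitidine 50 mg/kg group were included. Aspirin at 200 mg/kg was given orally 30 min after each dose. After a 24 hour fast, the rats were killed by cervical dislocation. Stomachs were opened along the greater curvature, rinsed with lukewarm saline, examined under a dissecting microscope and scored for ulcer index.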"}, "[2]": {"test_system": "gastric ulceration in cold restraint rats", "assay": "Cold restraint (stress) induced ulcers", "parameters": "Ulcer index Mean(SE): scale not given here", "details": "rats, 4° C. for 2 hours", "procedure,_shortened": "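Albino rats, fasted 48 h with free water, dosed orally with compound at 25 mg/kg or at 50, 25, 15, 10 and 5 mg/kg in 1% Tween 80 vehicle. Water removed 1 h before restraint at 4° C for 2 h. Sacrificed 2 h after stress; stomachs opened along greater curvature and scored as mean ulcer index.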"}, "Pylorus ligated rats": {"test_system": "Pylorus ligated rats", "assay": "Pylorus ligated ulcers", "details": "4 hours after pylorus ligation", "procedure,_shortened": "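Albino rats, fasted 48 h, dosed with test compound (25 mg/kg, or 50, 25, 15, 10 and 5 mg/kg) or ranitidine 50 mg/kg in 1% Tween 80 vehicle. Pylorus ligated under ether 1 h post-dose. Gastric contents collected 4 h later, centrifuged, and total acid titrated with 0.01N NaOH.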"}, "[3]": {"details": "5 mg/kg per orally daily for five days"}, "[4]": {"details": "10 mg/kg per orally daily for five days"}, "[5]": {"details": "15 mg/kg per orally daily for five days"}, "[6]": {"details": "25 mg/kg per orally daily for five days"}, "[7]": {"details": "50 mg/kg per orally daily for five days"}},
  "note": "Values joined by “and” are separate entries in the source; they are usually repeats but may differ in a detail not shown here. Equal entries are not always repeated.",
  "data": [
    {"smiles": "COC(=O)C1OC(Oc2cc3oc(-c4ccccc4)cc(=O)c3cc2OC)C(O)C(O)C1O", "note": "(stereo not drawn) [OA-5, 3,4,5-trihydroxy-6-(6-methoxy-4-oxo-2-phenyl-4-H-chromen-7-yoloxy) tetrahydro-pyran-2-carboxylicacid methyl ester]", "values": [
      {"measurement": "Inhibition %", "setting": "[1]; [3]", "result": 18.75, "unit": "%"},
      {"measurement": "Ulcer index Mean(SE)", "setting": "[1]; [3]", "result": 36.66},
      {"measurement": "Inhibition %", "setting": "[1]; [4]", "result": 40.98, "unit": "%"},
      {"measurement": "Ulcer index Mean(SE)", "setting": "[1]; [4]", "result": 26.66},
      {"measurement": "Inhibition %", "setting": "[1]; [5]", "result": 40.98, "unit": "%"},
      {"measurement": "Ulcer index Mean(SE)", "setting": "[1]; [5]", "result": 26.66},
      {"measurement": "Inhibition %", "setting": "[1]; [6]", "result": 74.55, "unit": "%"},
      {"measurement": "Ulcer index Mean(SE)", "setting": "[1]; [6]", "result": 11.06},
      {"measurement": "Inhibition %", "setting": "[1]; [7]", "result": 77.84, "unit": "%"},
      {"measurement": "Ulcer index Mean(SE)", "setting": "[1]; [7]", "result": 10.00},
      {"measurement": "Inhibition %", "setting": "[2]; 5 mg/kg per orally", "result": 31.55, "unit": "%"},
      {"measurement": "Ulcer index Mean(SE)", "setting": "[2]; 5 mg/kg per orally", "result": 27.5},
      {"measurement": "Inhibition %", "setting": "[2]; 10 mg/kg per orally", "result": 41.92, "unit": "%"},
      {"measurement": "Ulcer index Mean(SE)", "setting": "[2]; 10 mg/kg per orally", "result": 23.33},
      {"measurement": "Inhibition %", "setting": "[2]; 15 mg/kg per orally", "result": 50.14, "unit": "%"},
      {"measurement": "Ulcer index Mean(SE)", "setting": "[2]; 15 mg/kg per orally", "result": 19.99},
      {"measurement": "Inhibition %", "setting": "[2]; 25 mg/kg per orally", "result": 75.45, "unit": "%"},
      {"measurement": "Ulcer index Mean(SE)", "setting": "[2]; 25 mg/kg per orally, 25 mg/kg", "result": "9.997 and 9.99"},
      {"measurement": "Inhibition %", "setting": "[2]; 50 mg/kg per orally", "result": 78.22, "unit": "%"},
      {"measurement": "Ulcer index Mean(SE)", "setting": "[2]; 50 mg/kg per orally", "result": 8.75},
      {"measurement": "Acidity Total mEg", "setting": "Pylorus ligated rats; 5 mg/kg", "result": "45.50 (±1.25) mEg"},
      {"measurement": "Gastric content", "setting": "Pylorus ligated rats; 5 mg/kg", "result": "2.06 (±0.28)"},
      {"measurement": "Inhibition %", "setting": "Pylorus ligated rats; 5 mg/kg", "result": 46.80, "unit": "%"},
      {"measurement": "Ulcer index Mean(SE)", "setting": "Pylorus ligated rats; 5 mg/kg", "result": "26.66 (±5.48)"},
      {"measurement": "pH", "setting": "Pylorus ligated rats; 5 mg/kg", "result": "3.25 (±0.17)"},
      {"measurement": "Acidity Total mEg", "setting": "Pylorus ligated rats; 10 mg/kg", "result": "42.90 (±2.37) mEg"},
      {"measurement": "Gastric content", "setting": "Pylorus ligated rats; 10 mg/kg", "result": "3.50 (±0.62)"},
      {"measurement": "Inhibition %", "setting": "Pylorus ligated rats; 10 mg/kg", "result": 59.78, "unit": "%"},
      {"measurement": "Ulcer index Mean(SE)", "setting": "Pylorus ligated rats; 10 mg/kg", "result": "21.66 (±3.04)"},
      {"measurement": "pH", "setting": "Pylorus ligated rats; 10 mg/kg", "result": "3.58 (±0.24)"},
      {"measurement": "Acidity Total mEg", "setting": "Pylorus ligated rats; 15 mg/kg", "result": "30.25 (±0.73) mEg"},
      {"measurement": "Gastric content", "setting": "Pylorus ligated rats; 15 mg/kg", "result": "3.62 (±0.61)"},
      {"measurement": "Inhibition %", "setting": "Pylorus ligated rats; 15 mg/kg", "result": 70.07, "unit": "%"},
      {"measurement": "Ulcer index Mean(SE)", "setting": "Pylorus ligated rats; 15 mg/kg", "result": "15.00 (±3.33)"},
      {"measurement": "pH", "setting": "Pylorus ligated rats; 15 mg/kg", "result": "4.35 (±0.10)"},
      {"measurement": "Acidity Total mEg", "setting": "Pylorus ligated rats; 25 mg/kg", "result": "30.18 (±0.50) m Eg"},
      {"measurement": "Gastric content", "setting": "Pylorus ligated rats; 25 mg/kg", "result": "2.10 (±0.34)"},
      {"measurement": "Inhibition %", "setting": "Pylorus ligated rats; 25 mg/kg", "result": 75.07, "unit": "%"},
      {"measurement": "Ulcer index Mean(SE)", "setting": "Pylorus ligated rats; 25 mg/kg", "result": "12.49 (±3.74)"},
      {"measurement": "pH", "setting": "Pylorus ligated rats; 25 mg/kg", "result": "5.62 (±0.19)"},
      {"measurement": "Acidity Total mEg", "setting": "Pylorus ligated rats; 50 mg/kg", "result": "32.66 (±0.62) m Eg"},
      {"measurement": "Gastric content", "setting": "Pylorus ligated rats; 50 mg/kg", "result": "2.50 (±0.19)"},
      {"measurement": "Inhibition %", "setting": "Pylorus ligated rats; 50 mg/kg", "result": 79.85, "unit": "%"},
      {"measurement": "Ulcer index Mean(SE)", "setting": "Pylorus ligated rats; 50 mg/kg", "result": "10.10 (±2.04)"},
      {"measurement": "pH", "setting": "Pylorus ligated rats; 50 mg/kg", "result": "4.62 (±0.10)"}
    ]}
  ]
}
